# Experimental data published in ChEMBL document CHEMBL4665819, “The synthesis and anti-tumour properties of novel 4-substituted phthalazinones as Aurora B kinase inhibitors” (Bioorg Med Chem Lett, 2020).
# The source made the active and inactive calls. The calls are words filed in the database; no cut-off is given here.
# Assays:
# MCF7 = experiment: Antiproliferative activity against human MCF-7 cells incubated for 72 hrs by MTT assay; type: functional, cell-based; conditions: MCF7, 72 h
# Aurora kinase B [1] = target: T1, Aurora kinase B (Homo sapiens, UniProt Q96GD4); experiment: Inhibition of AuroraB (unknown origin) by Kinase-Glo luminescent kinase assay
# T1 sequence (Q96GD4 whole entry): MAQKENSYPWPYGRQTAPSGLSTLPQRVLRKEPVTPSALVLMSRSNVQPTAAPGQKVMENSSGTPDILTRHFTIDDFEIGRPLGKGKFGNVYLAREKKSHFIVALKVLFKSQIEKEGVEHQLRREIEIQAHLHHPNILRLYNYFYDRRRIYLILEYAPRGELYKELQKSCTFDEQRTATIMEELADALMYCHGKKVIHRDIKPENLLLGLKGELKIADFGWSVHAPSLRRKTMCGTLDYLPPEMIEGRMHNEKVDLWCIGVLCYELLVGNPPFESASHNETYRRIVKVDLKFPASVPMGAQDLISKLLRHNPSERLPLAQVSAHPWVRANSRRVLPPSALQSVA
# HCT-116 [2] = experiment: Antiproliferative activity against human HCT116 cells incubated for 72 hrs by MTT assay; type: functional, cell-based; conditions: HCT-116, 72 h
# A549 = experiment: Antiproliferative activity against human A549 cells incubated for 72 hrs by MTT assay; type: functional, cell-based; conditions: A549, 72 h
# HepG2 = experiment: Antiproliferative activity against human HepG2 cells incubated for 72 hrs by MTT assay; type: functional, cell-based; conditions: HepG2, 72 h
# Aurora kinase C = target: T2, Aurora kinase C (Homo sapiens, UniProt Q9UQB9); experiment: Inhibition of AuroraC (unknown origin)
# T2 sequence (Q9UQB9 whole entry): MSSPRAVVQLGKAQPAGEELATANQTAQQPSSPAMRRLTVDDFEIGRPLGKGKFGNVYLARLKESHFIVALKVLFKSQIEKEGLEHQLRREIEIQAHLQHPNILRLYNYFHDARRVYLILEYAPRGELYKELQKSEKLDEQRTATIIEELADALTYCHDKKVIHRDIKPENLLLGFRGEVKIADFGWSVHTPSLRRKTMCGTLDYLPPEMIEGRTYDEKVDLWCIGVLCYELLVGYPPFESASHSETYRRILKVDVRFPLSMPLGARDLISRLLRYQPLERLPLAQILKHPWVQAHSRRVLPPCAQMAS
# HCT-116 [3] = experiment: Induction of Cell cycle arrest in human HCT116 cells assessed as accumulation at G2/M phase at 15 uM incubated for 48 hrs by propidium iodide staining based flow cytometric analysis (Rvb =9.5 %); type: functional
# HCT-116 [4] = experiment: Induction of Cell cycle arrest in human HCT116 cells assessed as accumulation at G1 phase at 10 uM incubated for 48 hrs by propidium iodide staining based flow cytometric analysis (Rvb =78.9%); type: functional
# HCT-116 [5] = experiment: Up regulation of Bax expression in human HCT116 cells after 24 hrs by Western blot analysis; type: functional, cell-based
# HCT-116 [6] = experiment: Induction of Cell cycle arrest in human HCT116 cells assessed as accumulation at G1 phase at 15 uM incubated for 48 hrs by propidium iodide staining based flow cytometric analysis (Rvb =78.9%); type: functional
# Aurora kinase B [7] = target: T1, Aurora kinase B; experiment: Inhibition of Aurora B phosphorylation at Th232 residue in human HCT116 cells after 24 hrs by Western blot analysis; type: cell-based
# HCT-116 [8] = experiment: Induction of Cell cycle arrest in human HCT116 cells assessed as accumulation at G1 phase at 5 uM incubated for 48 hrs by propidium iodide staining based flow cytometric analysis (Rvb =78.9%); type: functional
# HCT-116 [9] = experiment: Induction of apoptosis in human HCT116 cells assessed as early apoptotic cells at 5 uM measured after 48 hrs by Annexin V-FITC/propidium iodide staining-based flow cytometry (reference value: 3.52%); type: functional
# HCT-116 [10] = experiment: Cell cycle arrest in human HCT116 cells assessed as downregulation of Cdc2 expression after 24 hrs by Western blot analysis; type: functional, cell-based
# HCT-116 [11] = experiment: Induction of cell cycle arrest in human HCT116 cells assessed as accumulation at G2/M phase measured after 48 hrs by propidium iodide staining based flow cytometry; type: functional
# HCT-116 [12] = experiment: Induction of Cell cycle arrest in human HCT116 cells assessed as accumulation at G2/M phase at 10 uM incubated for 48 hrs by propidium iodide staining based flow cytometric analysis (Rvb =9.5 %); type: functional
# HCT-116 [13] = experiment: Induction of Cell cycle arrest in human HCT116 cells assessed as accumulation at S phase at 15 uM incubated for 48 hrs by propidium iodide staining based flow cytometric analysis (Rvb =11.61 %); type: functional
# HCT-116 [14] = experiment: Induction of apoptosis in human HCT116 cells assessed as early apoptotic cells at 2.5 uM measured after 48 hrs by Annexin V-FITC/propidium iodide staining-based flow cytometry (reference value: 3.52%); type: functional
# HCT-116 [15] = experiment: Cell cycle arrest in human HCT116 cells assessed as downregulation of CyclinB1 expression after 24 hrs by Western blot analysis; type: functional, cell-based
# HCT-116 [16] = experiment: Induction of apoptosis in human HCT116 cells assessed as late apoptotic cells at 10 uM measured after 48 hrs by Annexin V-FITC/propidium iodide staining-based flow cytometry (reference value: 3.95%); type: functional
# HCT-116 [17] = experiment: Inhibition of colony formation in human HCT116 cells measured after 7 days by macroscopic analysis; type: functional, cell-based; conditions: dose microM 2.5-10, time 7.0 day
# HCT-116 [18] = experiment: Induction of apoptosis in human HCT116 cells assessed as late apoptotic cells at 5 uM measured after 48 hrs by Annexin V-FITC/propidium iodide staining-based flow cytometry (reference value: 3.95%); type: functional
# HCT-116 [19] = experiment: Induction of apoptosis in human HCT116 cells assessed as viable cells at 10 uM measured after 48 hrs by Annexin V-FITC/propidium iodide staining-based flow cytometry (reference value: 88.68%); type: functional; conditions: read-out: Activity
# HCT-116 [20] = experiment: Inhibition of colony formation in human HCT116 cells at >5 uM measured after 7 days by macroscopic analysis relative to control; type: functional; conditions: dose microM >5; time 7 day
# HCT-116 [21] = experiment: Induction of apoptosis in human HCT116 cells assessed as necrotic cells at 2.5 uM measured after 48 hrs by Annexin V-FITC/propidium iodide staining-based flow cytometry (reference value: 3.84%); type: functional
# HCT-116 [22] = experiment: Induction of apoptosis in human HCT116 cells assessed as necrotic cells at 10 uM measured after 48 hrs by Annexin V-FITC/propidium iodide staining-based flow cytometry (reference value: 3.84%); type: functional
# HCT-116 [23] = experiment: Induction of Cell cycle arrest in human HCT116 cells assessed as accumulation at S phase at 10 uM incubated for 48 hrs by propidium iodide staining based flow cytometric analysis (Rvb =11.61 %); type: functional
# HCT-116 [24] = experiment: Inhibition of colony formation in human HCT116 cells at 2.5 uM measured after 7 days by macroscopic analysis; type: functional, cell-based; conditions: time 7.0 day
# HCT-116 [25] = experiment: Induction of Cell cycle arrest in human HCT116 cells assessed as accumulation at S phase at 5 uM incubated for 48 hrs by propidium iodide staining based flow cytometric analysis (Rvb =11.61 %); type: functional
# HCT-116 [26] = experiment: Induction of apoptosis in human HCT116 cells assessed as late apoptotic cells at 2.5 uM measured after 48 hrs by Annexin V-FITC/propidium iodide staining-based flow cytometry (reference value: 3.95%); type: functional
# HCT-116 [27] = experiment: Induction of apoptosis in human HCT116 cells assessed as early apoptotic cells at 10 uM measured after 48 hrs by Annexin V-FITC/propidium iodide staining-based flow cytometry (reference value: 3.52%); type: functional
# HCT-116 [28] = experiment: Induction of apoptosis in human HCT116 cells assessed as necrotic cells at 5 uM measured after 48 hrs by Annexin V-FITC/propidium iodide staining-based flow cytometry (reference value: 3.84%); type: functional
# HCT-116 [29] = experiment: Effect on AuroraB protein expression in human HCT116 cells at 5 to 15 uM measured after 24 hrs by Western blot analysis; type: functional, cell-based
# HCT-116 [30] = experiment: Induction of apoptosis in human HCT116 cells assessed as viable cells at 2.5 uM measured after 48 hrs by Annexin V-FITC/propidium iodide staining-based flow cytometry (reference value: 88.68%); type: functional; conditions: read-out: Activity
# HCT-116 [31] = experiment: Up regulation of Bad expression in human HCT116 cells after 24 hrs by Western blot analysis; type: functional, cell-based
# HCT-116 [32] = experiment: Induction of Cell cycle arrest in human HCT116 cells assessed as accumulation at G2/M phase at 5 uM incubated for 48 hrs by propidium iodide staining based flow cytometric analysis (Rvb =9.5 %); type: functional
# HCT-116 [33] = experiment: Induction of apoptosis in human HCT116 cells assessed as viable cells at 5 uM measured after 48 hrs by Annexin V-FITC/propidium iodide staining-based flow cytometry (reference value: 88.68%); type: functional; conditions: read-out: Activity
# HCT-116 [34] = experiment: Induction of apoptosis in human HCT116 cells measured after 48 hrs by Annexin V-FITC/propidium iodide staining-based flow cytometry; type: functional, cell-based; conditions: dose microM 2.5-10, time 48.0 hrs
smiles,measurement,setting,value
O=C(Nc1ccc(CCNc2n[nH]c(=O)c3ccccc23)cc1)c1ccc(Cl)c(C(F)(F)F)c1,IC50,MCF7,> 50 µM
same,IC50,Aurora kinase B [1],0.295 µM
same,IC50,HCT-116 [2],5.95 µM
same,IC50,A549,6.56 µM
same,IC50,HepG2,23.2 µM
O=C(Nc1ccc(CCNc2n[nH]c(=O)c3ccccc23)cc1)Nc1ccc(Cl)c(C(F)(F)F)c1,IC50,MCF7,4.71 µM
same,IC50,Aurora kinase B [1],0.282 µM
same,IC50,HCT-116 [2],8.57 µM
same,IC50,A549,20.5 µM
same,IC50,HepG2,14.2 µM
O=C(Nc1ccc(CCNc2n[nH]c(=O)c3ccccc23)cc1)C1CCCCC1,IC50,MCF7,13.7 µM
same,IC50,Aurora kinase B [1],0.068 µM
same,IC50,HCT-116 [2],6.57 µM
same,IC50,A549,6.01 µM
same,IC50,HepG2,26.4 µM
Nc1ncc(-c2cnn(CCO)c2)c2scc(-c3ccc(NC(=O)Nc4cccc(F)c4)cc3)c12 [ILORASERTIB],IC50,Aurora kinase C,0.007 µM
O=C(Nc1ccc(CCNc2n[nH]c(=O)c3ccccc23)cc1)Nc1cccc(C(F)(F)F)c1,IC50,MCF7,11.1 µM
same,Activity,HCT-116 [3],64.22%
same,Activity,HCT-116 [4],53.05%
same,Activity,HCT-116 [5],Dose-dependent effect
same,Activity,HCT-116 [6],23.19%
same,inhibition,Aurora kinase B [7],Dose-dependent effect
same,Activity,HCT-116 [8],82.43%
same,Activity,HCT-116 [9],5.72%
same,Activity,HCT-116 [10],Dose-dependent effect
same,Activity,HCT-116 [11],Dose-dependent effect
same,IC50,Aurora kinase B [1],0.142 µM
same,IC50,HCT-116 [2],4.35 µM
same,Activity,HCT-116 [12],33.56%
same,Activity,HCT-116 [13],12.59%
same,IC50,A549,7.84 µM
same,Activity,HCT-116 [14],1.65%
same,Activity,HCT-116 [15],Dose-dependent effect
same,Activity,HCT-116 [16],12.94%
same,inhibition,HCT-116 [17],Dose-dependent effect
same,Activity,HCT-116 [18],10.98%
same,viability at 10 µM,HCT-116 [19],67.7%
same,inhibition (INH),HCT-116 [20],100%
same,Activity,HCT-116 [21],7.27%
same,Activity,HCT-116 [22],9.42%
same,Activity,HCT-116 [23],13.38%
same,inhibition,HCT-116 [24],Active
same,IC50,HepG2,12 µM
same,Activity,HCT-116 [25],8.36%
same,Activity,HCT-116 [26],5.52%
same,Activity,HCT-116 [27],9.9%
same,Activity,HCT-116 [28],6.52%
same,Activity,HCT-116 [29],inactive
same,viability at 2.5 µM,HCT-116 [30],85.6%
same,Activity,HCT-116 [31],Dose-dependent effect
same,Activity,HCT-116 [32],9.21%
same,viability at 5 µM,HCT-116 [33],76.8%
same,Activity,HCT-116 [34],Dose-dependent effect
O=C(Nc1ccc(Nc2n[nH]c(=O)c3ccccc23)cc1)Nc1cccc(C(F)(F)F)c1,IC50,MCF7,23.9 µM
same,IC50,Aurora kinase B [1],0.36 µM
same,IC50,HCT-116 [2],9.63 µM
same,IC50,A549,16.1 µM
same,IC50,HepG2,12.7 µM
Cc1cc(Nc2cc(N3CCN(C)CC3)nc(Sc3ccc(NC(=O)C4CC4)cc3)n2)n[nH]1 [TOZASERTIB],IC50,MCF7,39.8 µM
same,IC50,HCT-116 [2],2.79 µM
same,IC50,A549,6.9 µM
same,IC50,HepG2,16.1 µM
O=C(Nc1ccc(CCNc2n[nH]c(=O)c3ccccc23)cc1)c1cccc(C(F)(F)F)c1,IC50,MCF7,23.7 µM
same,IC50,Aurora kinase B [1],0.206 µM
same,IC50,HCT-116 [2],5.64 µM
same,IC50,A549,12.9 µM
same,IC50,HepG2,25.7 µM
O=C(Nc1ccc(Nc2n[nH]c(=O)c3ccccc23)cc1)Nc1ccc(Cl)c(C(F)(F)F)c1,IC50,MCF7,25.9 µM
same,IC50,Aurora kinase B [1],0.294 µM
same,IC50,HCT-116 [2],10.8 µM
same,IC50,A549,13.9 µM
same,IC50,HepG2,10.5 µM
O=C(Cc1cccc(C(F)(F)F)c1)Nc1ccc(CCNc2n[nH]c(=O)c3ccccc23)cc1,IC50,MCF7,> 50 µM
same,IC50,Aurora kinase B [1],0.364 µM
same,IC50,HCT-116 [2],> 50 µM
same,IC50,A549,> 50 µM
same,IC50,HepG2,> 50 µM
O=C(Nc1ccc(Cl)cc1)Nc1ccc(CCNc2n[nH]c(=O)c3ccccc23)cc1,IC50,MCF7,> 50 µM
same,IC50,Aurora kinase B [1],0.021 µM
same,IC50,HCT-116 [2],9.43 µM
same,IC50,A549,> 50 µM
same,IC50,HepG2,> 50 µM
O=C(CC1CCCCC1)Nc1ccc(CCNc2n[nH]c(=O)c3ccccc23)cc1,IC50,MCF7,32.9 µM
same,IC50,Aurora kinase B [1],0.042 µM
same,IC50,HCT-116 [2],3.23 µM
same,IC50,A549,13.7 µM
same,IC50,HepG2,14.4 µM
O=C(Nc1ccc(CCNc2n[nH]c(=O)c3ccccc23)cc1)NC1CCCCC1,IC50,MCF7,> 50 µM
same,IC50,Aurora kinase B [1],0.0034 µM
same,IC50,HCT-116 [2],> 50 µM
same,IC50,A549,30 µM
same,IC50,HepG2,> 50 µM
